Assay results: publication PMC6311893, “Computational prediction of plasma protein binding of cyclic peptides from small molecule experimental data using sparse modeling techniques” (BMC Bioinformatics, 2018)
Where two headings read alike, the source gives them in different places. Positions of bridges follow the written chain, without caps; N, C: chain ends. Residues, ends and D or L forms follow the SMILES beside them.

Key:
in vitro = in vitro ADME; conditions: human, plasma, Exp. PPB (fb*)
Method: As the number of publicly available data of cyclic peptide drugs is small compared to that of small molecule, we additionally designed and experimented with 16 cyclic peptides composed exclusively of natural amino acids. First, linear peptides were synthesized. Then, circularization was achieved by making a disulfide bond between N-terminal and C-terminal cysteine residues and confirmed by TOF/MS and HPLC analyses. Human PPB values fb were determined by the equilibrium dialysis method. Frozen human plasma was thawed immediately at room temperature. Then, the plasma was centrifuged at 3220 g for 10 min to remove clots and the supernatant was collected into a fresh tube. The working solutions of test compounds were prepared in DMSO at a concentration of 200 μM. Then, 3 μL of the working solution was removed for mixing with 597 μL of human plasma to achieve a final concentration of 1 μM (0.5% DMSO). The plasma samples were vortexed thoroughly. The dialysis membranes (HTD 96a/b Dialysis Membrane Strips MWCO 12-14 K, Cat. #1101, Batch# 1141 (12–17)) were soaked in ultrapure water for 60 min to separate the strips, then in 20% ethanol for 20 min, and finally in the dialysis buffer (100 mM sodium phosphate and 150 mM NaCl) for 20 min. The dialysis apparatus was assembled according to the manufacturer’s instructions. Each cell was filled with the spiked plasma sample and dialyzed against equal volume of the dialysis buffer. The assay was performed in duplicate. The dialysis plate was sealed and incubated in an incubator at 37 °C with 5% CO2 at 100 rpm for 6 h. At the end of incubation, the seal was removed and 50 μL of samples from both buffer and plasma chambers were transferred to wells of a 96-well plate. 50 μL of blank plasma was added to each buffer sample and an equal volume of phosphate buffered saline was supplemented to the collected plasma sample. […] Samples in the plate were vortexed for 5 min and centrifuged at 3220 g for 30 min at 4 °C. Then, the supernatant was transferred to a new 96-well plate with 100 μL or 200 μL water (depending on the LC-MS signal response and peak shape) for LC-MS/MS analysis.

plasma protein [1] = conditions: cited from earlier work
plasma protein [2] = conditions: cited from earlier work; remark: listed apart in the source
[3] = fraction bound to plasma protein, small molecule dataset, sheet 1-SM, Set Dtr, ref Ingle et al.
[4] = fraction bound to plasma protein, small molecule dataset, sheet 1-SM (Set Dte = test, Dtr = training), ref Ingle et al.
[5] = fraction bound (0-1), public cyclic peptide drug dataset, ref DrugBank [39]

CC[C@H](C)[C@@H]1NC(=O)[C@H](Cc2ccc(O)cc2)NC(=O)[C@@H](N)CSSC[C@@H](C(=O)O)NC(=O)CNC(=O)[C@H](CC(C)C)NC(=O)[C@@H]2CCCN2C(=O)[C@H](CC(N)=O)NC(=O)[C@H](CCC(N)=O)NC1=O [Pep.2] (H-CYIQNPLGC-OH; disulfide 1-9; N-terminus and C-terminus assumed)
fraction unbound at 6 h, 1 μM (in vitro): 0.995

CC(C)[C@@H]1NC(=O)[C@H](CCCCN)NC(=O)[C@H](Cc2c[nH]c3ccccc23)NC(=O)[C@H](C)NC(=O)[C@@H](N)CSSC[C@@H](C(=O)O)NC(=O)[C@H]([C@@H](C)O)NC1=O [Pep.3] (H-CAWKVTC-OH; disulfide 1-7; N-terminus and C-terminus assumed)
fraction unbound at 6 h, 1 μM (in vitro): 1

NCCCC[C@@H]1NC(=O)[C@H](Cc2c[nH]c3ccccc23)NC(=O)[C@H](Cc2ccccc2)NC(=O)[C@@H]2CCCN2C(=O)[C@H](Cc2ccccc2)NC(=O)[C@@H](N)CSSC[C@@H](C(=O)O)NC(=O)[C@H](Cc2ccc(O)cc2)NC1=O [Pep.4] (H-CFPFWKYC-OH; disulfide 1-8; N-terminus and C-terminus assumed)
fraction unbound at 6 h, 1 μM (in vitro): 0.384

CC(C)[C@@H]1NC(=O)[C@H](CCCNC(=N)N)NC(=O)[C@@H]2CCCN2C(=O)[C@H](CCCNC(=N)N)NC(=O)[C@H](Cc2c[nH]c3ccccc23)NC(=O)[C@@H](N)CSSC[C@@H](C(=O)O)NC(=O)[C@H](CCCNC(=N)N)NC(=O)[C@H](C)NC1=O [Pep.5] (H-CWRPRVARC-OH; disulfide 1-9; N-terminus and C-terminus assumed)
fraction unbound at 6 h, 1 μM (in vitro): 1

C[C@@H](O)[C@@H]1NC(=O)[C@H](CCCCN)NC(=O)[C@H](Cc2c[nH]c3ccccc23)NC(=O)[C@H](Cc2ccccc2)NC(=O)[C@H](Cc2ccccc2)NC(=O)[C@@H](N)CSSC[C@@H](C(=O)O)NC(=O)[C@H]([C@@H](C)O)NC1=O [Pep.6] (H-CFFWKTTC-OH; disulfide 1-8; N-terminus and C-terminus assumed)
fraction unbound at 6 h, 1 μM (in vitro): 0.737

CC(C)C[C@@H]1NC(=O)[C@H](CC(C)C)NC(=O)[C@H](CCCCN)NC(=O)[C@@H](N)CSSC[C@@H](C(=O)O)NC(=O)[C@H]([C@@H](C)O)NC(=O)[C@H](CCCCN)NC(=O)[C@H](CCCCN)NC1=O [Pep.7] (H-CKLLKKTC-OH; disulfide 1-8; N-terminus and C-terminus assumed)
fraction unbound at 6 h, 1 μM (in vitro): 1

CN1CCN(CCCN2c3ccccc3Sc3ccc(C(F)(F)F)cc32)CC1 [trifluoperazine]
PPB (fb) (plasma protein [1]; [3]): 0.99

CC(CN(C)C)CN1c2ccccc2Sc2ccccc21 (stereo not shown) [trimeprazine]
PPB (fb) (plasma protein [1]; [3]): 0.85

CN1C(=O)OC(C)(C)C1=O [trimethadione]
PPB (fb) (plasma protein [1]; [3]): 0

Cc1ccc(/C(=C\CN2CCCC2)c2ccccn2)cc1 [triprolidine]
PPB (fb) (plasma protein [1]; [3]): 0.9

Cc1c(C)c2c(c(C)c1O)CCC(C)(COc1ccc(CC3SC(=O)NC3=O)cc1)O2 (stereo not shown) [troglitazone]
PPB (fb) (plasma protein [1]; [3]): 0.99

CN1[C@@H]2CC[C@H]1C[C@@H](OC(=O)c1c[nH]c3ccccc13)C2 [tropisetron]
PPB (fb) (plasma protein [1]; [3]): 0.7

COc1ccccc1N1CCN(CCCNc2cc(=O)n(C)c(=O)n2C)CC1 [urapidil]
PPB (fb) (plasma protein [1]; [3]): 0.8

C[C@H](CCC(=O)O)[C@H]1CC[C@H]2[C@@H]3[C@@H](O)C[C@@H]4C[C@H](O)CC[C@]4(C)[C@H]3CC[C@]12C [ursodiol]
PPB (fb) (plasma protein [1]; [3]): 0.97

CC(C)[C@H](N)C(=O)OCCOCn1cnc2c(=O)[nH]c(N)nc21 [valacyclovir]
PPB (fb) (plasma protein [1]; [3]): 0.18

Cc1onc(-c2ccccc2)c1-c1ccc(S(N)(=O)=O)cc1 [valdecoxib]
PPB (fb) (plasma protein [1]; [3]): 0.98

C=CC(N)CCC(=O)O (stereo not shown) [vigabatrin]
PPB (fb) (plasma protein [1]; [3]): 0

CC1=C(C/C=C(\C)CCCC(C)CCCC(C)CCCC(C)C)C(=O)c2ccccc2C1=O (stereo not shown) [vitamin-K]
PPB (fb) (plasma protein [1]; [3]): 0.9

OCC(CO)N[C@H]1C[C@](O)(CO)[C@@H](O)[C@H](O)[C@H]1O [voglibose]
PPB (fb) (plasma protein [1]; [3]): 0.14

Cc1cccc(C)c1NC(=O)c1cc(S(N)(=O)=O)c(Cl)cc1O [xipamide]
PPB (fb) (plasma protein [1]; [3]): 0.99

COc1cc(C(=O)NS(=O)(=O)c2ccccc2C)ccc1Cc1cn(C)c2ccc(NC(=O)OC3CCCC3)cc12 [zafirlukast]
PPB (fb) (plasma protein [1]; [3]): 0.99

Nc1ccn([C@H]2CC[C@@H](CO)O2)c(=O)n1 [zalcitabine]
PPB (fb) (plasma protein [1]; [3]): 0.03

CC(c1cc2ccccc2s1)N(O)C(N)=O (stereo not shown) [zileuton]
PPB (fb) (plasma protein [1]; [4]): 0.93

CN(C)C/C=C(/c1ccc(Br)cc1)c1cccnc1 [zimeldine]
PPB (fb) (plasma protein [1]; [4]): 0.9

Cc1cc(CC(=O)O)n(C)c1C(=O)c1ccc(Cl)cc1 [zomepirac]
PPB (fb) (plasma protein [1]; [4]): 0.98

N=C(N)NC(=O)c1cnn(-c2cccc3ncccc23)c1C1CC1 [zoniporide]
PPB (fb) (plasma protein [1]; [3]): 0.5

NS(=O)(=O)Cc1noc2ccccc12 [zonisamide]
PPB (fb) (plasma protein [1]; [4]): 0.4

CN(C)CCOC1=Cc2ccccc2Sc2ccc(Cl)cc21 [zotepine]
PPB (fb) (plasma protein [1]; [4]): 0.97

OCCN1CCN(CC/C=C2/c3ccccc3Sc3ccc(Cl)cc32)CC1 [zuclopenthixol]
PPB (fb) (plasma protein [1]; [3]): 0.98

Acetyl-Daptomycin
PPB (fb) (plasma protein [2]; [5]): 0.12

Anidulafungin [reference compound]
PPB (fb) (plasma protein [1]; plasma): 0.84 | PPB (fb) (plasma protein [2]; [5]): 0.99

Atovaquone
PPB (fb) (plasma protein [1]; plasma): 1

Brotizolam
PPB (fb) (plasma protein [1]; plasma): 0.9

Caspofungin
PPB (fb) (plasma protein [2]; [5]): 0.97

Cefmetazole
PPB (fb) (plasma protein [1]; plasma): 0.77

Cefodizime
PPB (fb) (plasma protein [1]; plasma): 0.81

Cefoperazone
PPB (fb) (plasma protein [1]; plasma): 0.92

Clevidipine
PPB (fb) (plasma protein [1]; plasma): 1

Colistin
PPB (fb) (plasma protein [2]; [5]): 0.904-0.929

Dactinomycin
PPB (fb) (plasma protein [2]; [5]): 0.05

Dalbavancin
PPB (fb) (plasma protein [2]): 0.93

Daptomycin
PPB (fb) (plasma protein [2]; [5]): 0.85

Desmopressin
PPB (fb) (plasma protein [2]; [5]): 0.5

Doxycycline
PPB (fb) (plasma protein [1]; plasma): 0.89

Eptifibatide [reference compound]
PPB (fb) (plasma protein [1]; plasma): 0.25 | PPB (fb) (plasma protein [2]): 0.25

Felodipine
PPB (fb) (plasma protein [1]; plasma): 1

Fluorescein
PPB (fb) (plasma protein [1]; plasma): 0.87

Gabapentin
PPB (fb) (plasma protein [1]; plasma): 0.02

Iloprost
PPB (fb) (plasma protein [1]; plasma): 0.6

Isradipine
PPB (fb) (plasma protein [1]; plasma): 0.95

Lanreotide
PPB (fb) (plasma protein [2]; [5]): 0.79-0.83

Micafungin [reference compound]
PPB (fb) (plasma protein [1]; plasma): 1 | PPB (fb) (plasma protein [2]; [5]): 0.99

Nicardipine
PPB (fb) (plasma protein [1]; plasma): 0.98

Nimodipine
PPB (fb) (plasma protein [1]; plasma): 0.98

Nisoldipine
PPB (fb) (plasma protein [1]; plasma): 1

Oritavancin
PPB (fb) (plasma protein [2]; [5]): 0.85

Oxytetracycline
PPB (fb) (plasma protein [1]; plasma): 0.2

Oxytocin [reference compound]
PPB (fb) (plasma protein [1]; plasma): 0 | PPB (fb) (plasma protein [2]): 0.3

Pasireotide
PPB (fb) (plasma protein [2]; [5]): 0.88

Polymyxin?B
PPB (fb) (plasma protein [2]; [5]): 0.559

Pyridostigmine
PPB (fb) (plasma protein [1]; plasma): 0

Quinupristin [reference compound]
PPB (fb) (plasma protein [1]; plasma): 0.66 | PPB (fb) (plasma protein [2]): 0.55-0.78

Rifabutin
PPB (fb) (plasma protein [1]; plasma): 0.76

Rolitetracycline
PPB (fb) (plasma protein [1]; plasma): 0.5

Romidepsin
PPB (fb) (plasma protein [2]; [5]): 0.92-0.94

Teixobactin
PPB (fb) (plasma protein [2]): 0.84

Telavancin
PPB (fb) (plasma protein [2]; [5]): 0.897

Terlipressin
PPB (fb) (plasma protein [2]): 0.3

Tetracycline
PPB (fb) (plasma protein [1]; plasma): 0.36

Tigecycline
PPB (fb) (plasma protein [1]; plasma): 0.8

Tolcapone
PPB (fb) (plasma protein [1]; plasma): 0.99

Vancomycin [reference compound]
PPB (fb) (plasma protein [1]; plasma): 0.37 | PPB (fb) (plasma protein [2]; [5]): 0.55

Vasopressin
PPB (fb) (plasma protein [2]; [5]): 0.01

acenocoumarol
PPB (fb) (plasma protein [1]; plasma): 0.98

cefotiam
PPB (fb) (plasma protein [1]; plasma): 0.4

ceftibuten
PPB (fb) (plasma protein [1]; plasma): 0.65

demeclocycline
PPB (fb) (plasma protein [1]; plasma): 0.54

dicoumarol
PPB (fb) (plasma protein [1]; plasma): 0.99

ethyl-biscoumacetate
PPB (fb) (plasma protein [1]; plasma): 0.9

flurazepam
PPB (fb) (plasma protein [1]; plasma): 0.97

idoxuridine
PPB (fb) (plasma protein [1]; plasma): 0

lacidipine
PPB (fb) (plasma protein [1]; plasma): 0.95

lanatoside-C
PPB (fb) (plasma protein [1]; fraction bound to plasma protein, small molecule dataset, sheet 1-SM, ref Ingle et al.): 0.25

lymecycline
PPB (fb) (plasma protein [1]; plasma): 0.45

manidipine
PPB (fb) (plasma protein [1]; plasma): 0.99

mepacrine
PPB (fb) (plasma protein [1]; plasma): 0.9

methacycline
PPB (fb) (plasma protein [1]; plasma): 0.84

nafarelin
PPB (fb) (plasma protein [1]; plasma): 0.8

nilvadipine
PPB (fb) (plasma protein [1]; plasma): 0.99

nitazoxanide
PPB (fb) (plasma protein [1]; plasma): 0.99

norgestimate
PPB (fb) (plasma protein [1]; plasma): 0.99

phenprocoumon
PPB (fb) (plasma protein [1]; plasma): 0.99

polythiazide
PPB (fb) (plasma protein [1]; plasma): 0.85

quinagolide
PPB (fb) (plasma protein [1]; plasma): 0.9

salvianolic acid B
PPB (fb) (plasma protein [1]; plasma): 0.75

spironolactone
PPB (fb) (plasma protein [1]; plasma): 0.98

trichloroethanol
PPB (fb) (plasma protein [1]; plasma): 0.35
